Source: ChEMBL document CHEMBL4680250, “Identification of tetracyclic lactams as NMDA receptor antagonists with potential application in neurological disorders” (Eur J Med Chem, 2020)

Tests used:
[1] = target: Glutamate NMDA receptor; experiment: Antagonist activity at NMDAR in embryonic cultures of rat cortical neuron assessed as inhibition of NMDA-induced calcium influx at 30 uM preincubated for 10 mins followed by NMDA addition by Fluo-4/AM dye based fluorescence assay relative to control; assay type: tissue-based
[2] = target: Glutamate NMDA receptor; experiment: Antagonist activity at NMDAR in embryonic cultures of rat cortical neuron assessed as inhibition of NMDA-induced calcium influx preincubated for 10 mins followed by NMDA addition by Fluo-4/AM dye based fluorescence assay; assay type: tissue-based
[3] = test system: HEK293; experiment: Cytotoxicity against HEK293 cells assessed as reduction in cell viability by MTT assay; assay type: cell-based; conditions: Homo sapiens
[4] = test system: HepG2; experiment: Cytotoxicity against human HepG2 cells assessed as reduction in cell viability by MTT assay; assay type: cell-based
[5] = Permeability of compound in PBS at pH 7.4 incubated for 120 mins by UV spectroscopy assay based PAMPA-BBB assay; assay type: ADME; conditions: read-out: permeability
[6] = target: Glutamate [NMDA] receptor; experiment: Binding affinity to NMDAR (unknown origin); assay type: protein-complex assay, Homo sapiens

Row | SMILES | IC50 ([1]; read-out: IC50) | IC50 [2] | IC50 [3] | IC50 [4] | Papp at 2 h [5] | Ki [6] | IC50 [1]
1 | O=C1CC[C@@]2(c3ccc(F)cc3)O[C@@H]3Cc4ccccc4[C@@H]3N12 | 56 µM | 17 µM | > 100 µM | > 100 µM | 24.2 ×10⁻⁶ cm/s |  | 
2 | C[C@@H]1CC(=O)N2[C@H]3c4ccccc4C[C@@H]3O[C@@]12c1ccc(Cl)cc1 | 32 µM |  |  |  |  |  | 
3 | C[C@H]1CC(=O)N2[C@H]3c4ccccc4C[C@H]3O[C@]12c1ccc(Cl)cc1 | 80 µM | 17 µM | > 100 µM | > 100 µM |  |  | 
4 | Cc1ccc([C@@]23CCC(=O)N2[C@H]2c4ccccc4C[C@H]2O3)cc1 | 46 µM | 24 µM |  |  |  |  | 
5 | C[C@H]1CC(=O)N2[C@H]3c4ccccc4C[C@@H]3O[C@@]12c1ccc(Cl)cc1 | 62 µM | 23 µM |  |  |  |  | 
6 | O=C1CC[C@]2(c3ccc(F)cc3)O[C@H]3Cc4ccccc4[C@@H]3N12 | 61 µM | 15 µM | > 100 µM | > 100 µM |  |  | 
7 | C[C@@H]1CC(=O)N2[C@H]3c4ccccc4C[C@H]3O[C@]12c1ccc(Cl)cc1 | 69 µM | 13 µM | 46 µM | 34 µM |  |  | 
8 | c1ccc2c(c1)C[C@H]1N[C@@H]2c2ccccc21 |  |  |  |  |  | 0.0372 µM | 
9 | COc1ccc([C@@]23CCC(=O)N2[C@H]2c4ccccc4C[C@H]2O3)cc1 | 4 µM |  |  |  |  |  | 
10 | CS(=O)(=O)c1ccc([C@@]23CCC(=O)N2[C@H]2c4ccccc4C[C@H]2O3)cc1 |  |  |  |  |  |  | Not Active
11 | O=C1CC[C@@]2(c3ccc(Cl)cc3)O[C@@H]3Cc4ccccc4[C@@H]3N12 | 82 µM | 17 µM | > 100 µM | > 100 µM | 19.2 ×10⁻⁶ cm/s |  | 
12 | CC[C@@]1(c2ccccc2Cl)CCCCC1=O |  |  |  |  |  | 0.659 µM | 
13 | O=C1CC[C@]2(c3ccc(Cl)cc3)O[C@H]3Cc4ccccc4[C@@H]3N12 | 65 µM | 13 µM | > 100 µM | > 100 µM | 15.8 ×10⁻⁶ cm/s |  | 
14 | O=C1CC[C@@]2(c3ccc(Br)cc3)O[C@@H]3Cc4ccccc4[C@@H]3N12 | 73 µM | 16 µM | > 100 µM | > 100 µM | 12.3 ×10⁻⁶ cm/s |  | 
15 | O=C1CC[C@]2(c3ccc(Br)cc3)O[C@H]3Cc4ccccc4[C@@H]3N12 | 66 µM | 11 µM | > 100 µM | > 100 µM | 11.2 ×10⁻⁶ cm/s |  | 
16 | O=C1CC[C@@]2(c3ccccc3)O[C@H]3Cc4ccccc4[C@@H]3N12 | 29 µM |  |  |  |  |  | 
17 | Cc1ccc([C@@]23CCC(=O)N2[C@H]2c4ccccc4C[C@H]2O3)cc1Cl | 63 µM | 12 µM | > 100 µM | > 100 µM |  |  | 
18 | O=C1CCC[C@@]2(c3ccccc3)O[C@@H]3Cc4ccccc4[C@@H]3N12 | 13 µM |  |  |  |  |  | 
19 | COc1ccc([C@@]23CCC(=O)N2[C@H]2c4ccccc4CC2O3)cc1F (single isomer, unassigned) | 13 µM |  |  |  |  |  | 
20 | Cc1ccc([C@]23CCC(=O)N2C2c4ccccc4C[C@@H]2O3)cc1Cl (single isomer, unassigned) | 49 µM |  |  |  |  |  | 
21 | N[C@@H](Cc1ccccn1)c1ccccc1 [LANICEMINE] |  |  |  |  |  | 0.56 µM | 
22 | c1ccc(C2(N3CCCCC3)CCCCC2)cc1 [PHENCYCLIDINE] |  |  |  |  |  | 0.059 µM | 
